ChEMBL document CHEMBL5137068, “Discovery of Hexahydrofuro[3,2-b]furans as New Kinase-Selective and Orally Bioavailable JAK3 Inhibitors for the Treatment of Leukemia Harboring a JAK3 Activating Mutant” (J Med Chem, 2022)
Active and inactive are the calls of the source. The calls are words filed in the database; no cut-off is given here.

Legend:
[1] = target: Signal transducer and activator of transcription 3 (Homo sapiens) (UniProt P40763); experiment: Inhibition of STAT3 activation in human U-937 cells assessed as decrease in P-STAT3 at 100 uM by Western blot analysis; assay type: cell-based; settings: time 0-24 hrs, TDE = time-dependent effect
[2] = target: Tyrosine-protein kinase JAK1 (Homo sapiens, UniProt P23458); experiment: Inhibition of human JAK1 at 0.5 uM relative to control
[3] = target: Cytoplasmic tyrosine-protein kinase BMX (Homo sapiens) (UniProt P51813); experiment: Inhibition of BMX (unknown origin) at 0.5 uM assessed as competition rate relative to control
[4] = target: T1, Tyrosine-protein kinase JAK3 (Homo sapiens) (UniProt P52333); experiment: Inhibition of JAK3 activation in human U-937 cells assessed as decrease in P-STAT5 incubated for 0 to 24 hrs by Western blot analysis; assay type: cell-based; settings: time 0-24 hrs, DDE = dose-dependent effect
T1 sequence (whole entry): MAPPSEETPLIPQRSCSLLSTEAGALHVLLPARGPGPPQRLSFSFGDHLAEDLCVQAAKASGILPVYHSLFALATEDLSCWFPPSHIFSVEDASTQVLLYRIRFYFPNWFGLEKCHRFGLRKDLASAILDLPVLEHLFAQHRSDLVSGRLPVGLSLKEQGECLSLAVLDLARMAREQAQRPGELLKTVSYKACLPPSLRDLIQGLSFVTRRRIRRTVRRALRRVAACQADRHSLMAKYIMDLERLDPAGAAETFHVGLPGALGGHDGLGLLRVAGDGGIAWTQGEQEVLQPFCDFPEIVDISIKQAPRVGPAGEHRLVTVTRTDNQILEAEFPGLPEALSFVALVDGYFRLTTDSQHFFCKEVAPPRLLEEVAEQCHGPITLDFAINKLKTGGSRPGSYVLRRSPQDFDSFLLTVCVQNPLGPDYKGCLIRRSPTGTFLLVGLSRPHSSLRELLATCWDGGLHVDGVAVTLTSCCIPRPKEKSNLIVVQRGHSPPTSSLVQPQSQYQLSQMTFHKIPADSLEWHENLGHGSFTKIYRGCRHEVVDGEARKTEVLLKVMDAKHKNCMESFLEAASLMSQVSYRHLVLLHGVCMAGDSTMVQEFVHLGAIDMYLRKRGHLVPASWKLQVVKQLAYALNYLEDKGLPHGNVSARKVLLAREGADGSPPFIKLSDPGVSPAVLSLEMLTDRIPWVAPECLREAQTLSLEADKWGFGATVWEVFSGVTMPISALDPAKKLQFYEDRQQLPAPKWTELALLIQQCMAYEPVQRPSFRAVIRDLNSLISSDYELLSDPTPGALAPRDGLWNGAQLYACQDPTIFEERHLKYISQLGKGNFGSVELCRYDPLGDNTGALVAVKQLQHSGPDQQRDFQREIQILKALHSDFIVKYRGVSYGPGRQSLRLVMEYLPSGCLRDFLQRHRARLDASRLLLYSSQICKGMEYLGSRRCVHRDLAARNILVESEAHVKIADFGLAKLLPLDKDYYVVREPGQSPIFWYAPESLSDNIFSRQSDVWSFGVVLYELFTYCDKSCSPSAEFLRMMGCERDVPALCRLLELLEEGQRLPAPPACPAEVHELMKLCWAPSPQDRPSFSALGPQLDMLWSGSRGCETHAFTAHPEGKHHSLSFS

U-937 [5] = experiment: Induction of cell cycle arrest in human U-937 cells assessed as accumulation at S phase at 33 nM measured after 24 hrs by propidium iodide staining based flow cytometric analysis (reference value: 15.35%); assay type: functional
U-937 [6] = experiment: Induction of cell cycle arrest in human U-937 cells assessed as downregulation of CDK6 at 0 to 300 nM measured after 24 hrs by western blot analysis; assay type: functional, cell-based; settings: dose 0-300 nM
[7] = target: [Pyruvate dehydrogenase (acetyl-transferring)] kinase isozyme 1, mitochondrial (Homo sapiens) (UniProt Q15118); experiment: Inhibition of PDK1 (unknown origin) at 0.5 uM relative to control
[8] = target: Tyrosine-protein kinase Tec (Homo sapiens) (UniProt P42680); experiment: Inhibition of TEC (unknown origin) at 0.5 uM assessed as competition rate relative to control
U-937 [9] = experiment: Induction of cell cycle arrest in human U-937 cells assessed as accumulation at G0/G1 phase at 100 nM measured after 24 hrs by propidium iodide staining based flow cytometric analysis (reference value: 62.95%); assay type: functional
[10] = target: Cyclin-dependent kinase 16 (Homo sapiens) (UniProt Q00536); experiment: Inhibition of human CDK16 at 0.5 uM assessed as competition rate relative to control
[11] = Cmax in 12 hr fasted SPF Sprague-Dawley rat at 15 mg/kg, po upon 2 hrs fasting post-administration measured upto 24 hrs; assay type: ADME, organism-based; set-up: time < 24 hrs, dose 15 mg/kg, route po; settings: in vivo
BaF3 = experiment: cells; settings: Mus musculus, BaF3, 72 h
Description: Antiproliferative activity against mouse BaF3 parent cell measured after 72 hrs by CCK-8 assay

[12] = target: Receptor-type tyrosine-protein kinase FLT3 (Homo sapiens, UniProt P36888); experiment: Inhibition of human FLT3
[13] = target: Tyrosine-protein kinase ITK/TSK (Homo sapiens) (UniProt Q08881); experiment: Inhibition of ITK (unknown origin) at 0.5 uM assessed as competition rate relative to control
[14] = target: Tyrosine-protein kinase TXK (Homo sapiens) (UniProt P42681); experiment: Inhibition of TXK (unknown origin) at 0.5 uM assessed as competition rate relative to control
[15] = target: Epidermal growth factor receptor (Homo sapiens) (UniProt P00533); experiment: Inhibition of EGFR (unknown origin) at 0.5 uM relative to control
[16] = Toxicity in CB17-SCID mouse xenografted with human U-937 cells assessed as body weight loss at 12.5 to 50 mg/kg, po twice daily for 10 days; assay type: organism-based; settings: in vivo, 240 h, dose 12.5-50 mg/kg, time 10 day
[17] = target: Tyrosine-protein kinase TXK (Homo sapiens) (UniProt P42681); experiment: Inhibition of TXK (unknown origin) at 0.5 uM relative to control
[18] = target: Tyrosine-protein kinase Blk (Homo sapiens) (UniProt P51451); experiment: Inhibition of BLK (unknown origin) at 0.5 uM relative to control
Tyrosine-protein kinase Blk (Homo sapiens), sequence (P51451 2-505 limits assumed): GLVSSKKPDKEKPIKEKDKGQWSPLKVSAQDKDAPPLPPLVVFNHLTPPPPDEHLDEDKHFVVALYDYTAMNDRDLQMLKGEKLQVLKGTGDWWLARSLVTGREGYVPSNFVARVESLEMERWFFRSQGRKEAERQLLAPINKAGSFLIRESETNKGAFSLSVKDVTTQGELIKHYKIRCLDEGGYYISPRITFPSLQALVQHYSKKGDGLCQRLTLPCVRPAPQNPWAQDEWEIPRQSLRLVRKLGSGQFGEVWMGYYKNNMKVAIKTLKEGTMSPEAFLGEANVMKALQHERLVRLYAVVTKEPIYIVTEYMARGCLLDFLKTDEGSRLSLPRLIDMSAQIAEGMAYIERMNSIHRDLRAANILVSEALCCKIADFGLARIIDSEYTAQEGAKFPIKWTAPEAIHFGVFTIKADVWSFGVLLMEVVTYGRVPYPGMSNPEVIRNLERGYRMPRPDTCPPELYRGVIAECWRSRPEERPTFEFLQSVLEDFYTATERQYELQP

Tyrosine-protein kinase TXK (Homo sapiens), sequence (P42681 whole entry): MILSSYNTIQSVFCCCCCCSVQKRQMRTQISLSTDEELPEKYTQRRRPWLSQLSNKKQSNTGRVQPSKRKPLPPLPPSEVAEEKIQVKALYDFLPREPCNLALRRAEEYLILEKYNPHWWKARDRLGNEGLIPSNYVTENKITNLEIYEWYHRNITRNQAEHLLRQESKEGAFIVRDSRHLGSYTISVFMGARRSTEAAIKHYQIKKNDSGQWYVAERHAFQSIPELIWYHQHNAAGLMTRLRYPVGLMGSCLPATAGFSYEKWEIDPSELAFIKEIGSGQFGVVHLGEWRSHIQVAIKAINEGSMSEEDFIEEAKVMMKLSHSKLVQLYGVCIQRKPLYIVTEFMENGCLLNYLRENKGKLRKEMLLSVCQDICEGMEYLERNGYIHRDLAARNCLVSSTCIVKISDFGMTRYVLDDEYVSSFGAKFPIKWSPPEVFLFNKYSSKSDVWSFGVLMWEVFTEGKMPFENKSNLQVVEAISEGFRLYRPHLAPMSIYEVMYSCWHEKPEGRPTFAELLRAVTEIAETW
Tyrosine-protein kinase Tec (Homo sapiens), sequence (P42680 whole entry): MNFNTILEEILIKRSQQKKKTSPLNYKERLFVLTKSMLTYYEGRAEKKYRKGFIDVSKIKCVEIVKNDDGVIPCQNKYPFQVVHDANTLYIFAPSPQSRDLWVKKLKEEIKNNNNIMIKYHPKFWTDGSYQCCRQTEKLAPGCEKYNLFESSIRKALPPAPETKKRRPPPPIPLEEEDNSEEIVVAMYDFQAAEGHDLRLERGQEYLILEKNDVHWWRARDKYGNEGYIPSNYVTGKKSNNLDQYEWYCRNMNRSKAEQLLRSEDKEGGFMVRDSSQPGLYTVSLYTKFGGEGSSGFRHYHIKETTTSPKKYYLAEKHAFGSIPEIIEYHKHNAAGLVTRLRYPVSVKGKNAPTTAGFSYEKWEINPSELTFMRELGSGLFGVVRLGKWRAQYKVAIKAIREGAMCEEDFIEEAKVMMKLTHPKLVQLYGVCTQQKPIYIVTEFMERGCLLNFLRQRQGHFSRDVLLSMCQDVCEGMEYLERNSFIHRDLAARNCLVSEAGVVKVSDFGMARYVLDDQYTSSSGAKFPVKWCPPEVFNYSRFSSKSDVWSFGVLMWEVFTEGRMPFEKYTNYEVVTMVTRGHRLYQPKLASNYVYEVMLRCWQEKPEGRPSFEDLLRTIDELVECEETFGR
Cytoplasmic tyrosine-protein kinase BMX (Homo sapiens), sequence (P51813 whole entry): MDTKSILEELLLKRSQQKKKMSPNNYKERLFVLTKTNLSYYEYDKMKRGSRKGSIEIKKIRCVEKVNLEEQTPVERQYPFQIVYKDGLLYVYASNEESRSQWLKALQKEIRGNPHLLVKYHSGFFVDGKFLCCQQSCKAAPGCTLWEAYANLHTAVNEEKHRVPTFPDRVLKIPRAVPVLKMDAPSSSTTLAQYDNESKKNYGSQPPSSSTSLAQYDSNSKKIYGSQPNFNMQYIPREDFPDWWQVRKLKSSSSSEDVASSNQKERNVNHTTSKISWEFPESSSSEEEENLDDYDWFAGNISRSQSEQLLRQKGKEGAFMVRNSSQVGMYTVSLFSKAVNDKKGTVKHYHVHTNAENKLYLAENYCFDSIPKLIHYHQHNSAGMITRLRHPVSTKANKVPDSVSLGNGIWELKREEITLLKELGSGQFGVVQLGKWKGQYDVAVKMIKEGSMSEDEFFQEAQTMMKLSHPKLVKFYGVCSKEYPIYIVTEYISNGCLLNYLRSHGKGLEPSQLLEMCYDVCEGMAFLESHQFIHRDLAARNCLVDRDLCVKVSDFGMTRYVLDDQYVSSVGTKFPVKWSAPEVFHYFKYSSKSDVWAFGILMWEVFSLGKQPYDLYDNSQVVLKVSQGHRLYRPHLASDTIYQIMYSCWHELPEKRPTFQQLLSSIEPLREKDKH
Tyrosine-protein kinase JAK1, sequence (P23458 whole entry): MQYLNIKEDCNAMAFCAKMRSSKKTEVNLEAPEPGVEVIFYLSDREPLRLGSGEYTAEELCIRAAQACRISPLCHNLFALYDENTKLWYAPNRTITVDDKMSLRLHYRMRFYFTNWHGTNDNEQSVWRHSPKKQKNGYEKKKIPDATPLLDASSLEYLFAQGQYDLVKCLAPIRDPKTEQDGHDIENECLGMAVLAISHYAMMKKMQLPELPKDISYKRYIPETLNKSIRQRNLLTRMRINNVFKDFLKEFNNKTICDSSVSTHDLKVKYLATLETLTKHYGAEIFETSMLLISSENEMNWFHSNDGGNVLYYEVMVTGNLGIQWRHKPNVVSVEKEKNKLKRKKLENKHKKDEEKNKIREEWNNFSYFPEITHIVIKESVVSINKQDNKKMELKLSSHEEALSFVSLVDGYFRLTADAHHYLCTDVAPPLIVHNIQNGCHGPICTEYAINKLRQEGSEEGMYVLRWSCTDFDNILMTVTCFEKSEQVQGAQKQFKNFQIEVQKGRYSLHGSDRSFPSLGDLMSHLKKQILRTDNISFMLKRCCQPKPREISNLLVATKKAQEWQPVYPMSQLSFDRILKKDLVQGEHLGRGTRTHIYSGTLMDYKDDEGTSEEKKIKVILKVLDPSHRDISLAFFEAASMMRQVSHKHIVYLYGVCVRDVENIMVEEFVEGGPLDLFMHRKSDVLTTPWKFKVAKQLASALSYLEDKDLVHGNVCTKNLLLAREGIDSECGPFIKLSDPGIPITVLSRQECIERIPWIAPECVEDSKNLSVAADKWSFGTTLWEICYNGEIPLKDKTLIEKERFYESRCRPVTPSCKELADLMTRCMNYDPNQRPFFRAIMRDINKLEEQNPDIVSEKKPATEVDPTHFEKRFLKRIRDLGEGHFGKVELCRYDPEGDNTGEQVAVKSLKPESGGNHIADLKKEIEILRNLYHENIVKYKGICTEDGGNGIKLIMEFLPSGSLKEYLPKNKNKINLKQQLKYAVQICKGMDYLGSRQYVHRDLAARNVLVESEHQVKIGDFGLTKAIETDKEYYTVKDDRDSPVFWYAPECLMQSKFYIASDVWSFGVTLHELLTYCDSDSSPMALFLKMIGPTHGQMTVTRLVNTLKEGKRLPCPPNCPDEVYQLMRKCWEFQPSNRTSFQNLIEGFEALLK
Epidermal growth factor receptor (Homo sapiens), sequence (P00533 whole entry): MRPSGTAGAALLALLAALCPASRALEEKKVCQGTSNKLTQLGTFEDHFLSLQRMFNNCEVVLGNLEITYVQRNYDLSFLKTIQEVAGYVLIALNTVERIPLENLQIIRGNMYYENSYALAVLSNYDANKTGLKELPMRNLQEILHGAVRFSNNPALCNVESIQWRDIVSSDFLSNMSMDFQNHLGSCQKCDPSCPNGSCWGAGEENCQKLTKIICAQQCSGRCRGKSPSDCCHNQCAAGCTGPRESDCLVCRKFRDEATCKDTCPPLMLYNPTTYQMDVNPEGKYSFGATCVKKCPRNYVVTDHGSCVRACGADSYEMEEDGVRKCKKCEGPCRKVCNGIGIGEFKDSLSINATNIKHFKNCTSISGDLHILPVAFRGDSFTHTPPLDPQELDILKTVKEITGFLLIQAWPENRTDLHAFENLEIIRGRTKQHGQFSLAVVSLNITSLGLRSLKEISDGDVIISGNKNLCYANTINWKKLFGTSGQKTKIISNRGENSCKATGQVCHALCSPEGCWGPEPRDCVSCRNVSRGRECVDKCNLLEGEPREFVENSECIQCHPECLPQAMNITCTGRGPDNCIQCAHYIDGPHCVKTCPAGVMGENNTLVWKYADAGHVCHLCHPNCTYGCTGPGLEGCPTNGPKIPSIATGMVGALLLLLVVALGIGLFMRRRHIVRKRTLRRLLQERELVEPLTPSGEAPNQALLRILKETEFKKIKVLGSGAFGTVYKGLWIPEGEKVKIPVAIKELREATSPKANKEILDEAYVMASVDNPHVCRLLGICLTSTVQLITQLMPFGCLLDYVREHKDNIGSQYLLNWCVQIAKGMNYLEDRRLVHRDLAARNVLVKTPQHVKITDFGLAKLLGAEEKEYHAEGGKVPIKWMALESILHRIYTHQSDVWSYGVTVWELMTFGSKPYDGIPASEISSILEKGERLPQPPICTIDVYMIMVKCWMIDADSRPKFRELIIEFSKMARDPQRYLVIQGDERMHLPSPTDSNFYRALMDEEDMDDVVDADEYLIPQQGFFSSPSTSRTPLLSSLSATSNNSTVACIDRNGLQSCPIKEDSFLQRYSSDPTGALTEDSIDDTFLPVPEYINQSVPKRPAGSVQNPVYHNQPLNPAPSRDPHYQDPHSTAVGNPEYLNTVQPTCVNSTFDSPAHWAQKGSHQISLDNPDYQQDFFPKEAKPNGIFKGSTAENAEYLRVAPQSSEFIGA

With `C=CC(=O)Nc1cc(Nc2ncc(Cl)c(O[C@@H]3CO[C@H]4[C@@H]3OC[C@H]4OC)n2)ccc1N(C)CCN(C)C` the inhibition [1] was “Tde”, the inhibition [2] was 84% and the inhibition [3] was 40%. The inhibition [4] was “Dde”, the Activity (U-937 [5]) was 13.62% and the Activity (U-937 [6]) was “Active”. The inhibition [7] was 111%, the inhibition [8] was 40% and the Activity (U-937 [9]) was 72.06%. For the same molecule, the inhibition [10] was 70%, the Cmax [11] was 238 ng/mL and the IC50 (BaF3) was 165 nM. The IC50 [12] was 132 nM, the inhibition [13] was 40% and the inhibition [14] was 40%. The inhibition [15] was 94%, the Activity [16] was “Non-Toxic” and the inhibition [17] was 103%. For the same molecule, the inhibition [18] was 60%.
